Test results: US20020150540A1, “Allergen neutralization compositions containing aluminum ions” (priority 2001, published 2002)

How the values were obtained:
[1] = molecular target: T1, Der f 1 (Dermatophagoides farinae, UniProt P16311); experiment: ELISA efficacy determination protocol, allergen neutralization versus Der f 1; assay type: biochemical; details: for % of Allergen Neutralized: Versus Der f 1, 0.26 wt.% active ion in composition before sample preparation, pH 3.5, normalized to water control
T1 construct: Add 1.0 ml of 20 ug/ml Dermatophagoides farinae mite extract; from tissue; host or cells: Dermatophagoides farinae mite extract (crude)
T1 sequence (P16311 99-321): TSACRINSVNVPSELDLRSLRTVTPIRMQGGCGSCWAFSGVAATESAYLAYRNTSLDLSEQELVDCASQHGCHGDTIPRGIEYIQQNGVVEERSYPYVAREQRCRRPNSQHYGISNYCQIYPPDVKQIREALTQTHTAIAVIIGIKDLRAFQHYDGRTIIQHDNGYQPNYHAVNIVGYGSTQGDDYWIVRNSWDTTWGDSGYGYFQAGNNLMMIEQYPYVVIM
Source text: (§1) The efficacy of an allergen neutralization composition can be determined by the ELISA protocol. Enzyme-linked immunosorbent assay (“ELISA”) is a highly sensitive assay technique for detection and measurement of antigens or antibodies in solution. The assay uses enzyme-linked antigens or antibodies to amplify an antigen-antibody reaction. A single enzyme-linked antibody-antigen complex can convert orders of magnitude more of colorless substrate molecules into detectable colored products, thus considerably amplifying the original antigen-antibody reaction. The antigen or antibody is adsorbed onto the surface of the well of a microtiter plate, and all the relevant reactions take place in solution inside the well. While the following protocol will be easily understood by those skilled in the art, for a more detailed explanation please see Konishi, E. and Uehara, K. Enzyme-linked immunosorbent assay for quantifying antigens of Dermatophagoides farinae and D. pteronyssinus (Acari: Pyroglyphidae) in house dust samples, 1990, Entomologist Society of America, 27 (6), p. 993-998.
(§2) It is understood that those skilled in the art of allergen suppression will be aware of numerous variations to the protocol given below. For example, the monoclonal antibody may be substituted with a similar antibody, for example Der f 1 for Der f 2. But a standard, in this case water, is used and the results for the samples that contain active ingredients are normalized against the standard and the results reported as percentage of allergen remaining. That is, the amount of allergen that is not neutralized. Thus, the allergen neutralization results for similar, but not identical antibodies should be substantially the same when normalized to the standard. Both Der f 1 and Der f 2 were tested for various compositions. Der f 1 was chosen as the standard for the present Efficacy Determination Protocol.
(§3) At least two samples are prepared. One sample contains only distilled water and samples of one or more allergen neutralization compositions containing the allergen neutralization active, for example Al2(SO4)3, tannin, etc. The samples are all treated according to the same protocol, and the distilled water sample is used as the control. All samples are prepared as follows:
(§4) 1) Add 1.0 ml of 20 ug/ml Dermatophagoides farinae mite extract to 0.8 ml of the sample composition (either the allergen neutralization composition or water for the control). Mix well and let sit for 1 hour at room temp.
(§5) 2) Add 2.2 ml of 20% skim milk in Phosphate Buffer Saline (PBS).
(§6) 3) Mix well by vortexing and centrifuge at 12000 rpm (approx. 17000×g) for 1 hour.
(§7) 4) The supernatant is used for the ELISA protocol.
(§8) Each well of a microplate is coated at 4° C. overnight with 100 μl of Der f 2 monoclonal antibody (clone 15E11, from Asahi Breweries., AB-A-4) at a protein concentration of 2 μg per ml of Phosphate Buffer Saline (PBS), pH 7.4 containing 0.1% sodium azide. The monoclonal antibody is discarded and the plate is incubated with 100 μl of 1% BSA PBS containing 0.1% sodium azide for 1 hour. The plate is washed 3 times with PBS containing 0.05% Tween 20 (PBS-T). 100 μl of an allergen sample is added and incubated for 1 hour at 37° C.
(§9) Use 3×dilutions of a reference Dermatophagoides farinae crude extract (commercially available from LSL) to make the standard curve. The curve is made using 6.9 nanogram-mite extract equivalent/ml to 5 microgram-mite extract equivalent/ml. Wash plate with PBS-T for 3 times. 100 μl of Horse Radish Peroxidase (HRP) conjugated anti Der f 2 antibody (clone 13A4) is added at 40 ng/ml and the plate is incubated at 37° C. for 1 hour. The plate is then washed with PBS-T 3 times and then washed with water 3 times. The wells are incubated with 100 μl of o-phenylene diamine at 2.0 mg/ml of 0.1M phosphate buffer (pH 6.2) containing 0.03% H2O2. The enzyme reaction is terminated by adding 50 μl of 2 M H2SO4.
(§10) The absorbance of the sample is read at 490 nm with a cell length of 1 cm. […]

[2] = molecular target: T2, Der f 2 (Dermatophagoides farinae, UniProt Q00855); experiment: ELISA efficacy determination protocol, allergen neutralization versus Der f 2; assay type: biochemical; details: 0.26 wt.% active ion in composition before sample preparation, pH 3.5, normalized to water control
T2 construct: Add 1.0 ml of 20 ug/ml Dermatophagoides farinae mite extract; from tissue; host or cells: Dermatophagoides farinae mite extract (crude)
T2 sequence (Q00855 18-146): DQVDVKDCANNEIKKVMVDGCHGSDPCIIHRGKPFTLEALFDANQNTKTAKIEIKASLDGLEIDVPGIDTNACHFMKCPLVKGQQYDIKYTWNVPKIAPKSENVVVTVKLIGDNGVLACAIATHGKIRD
Source text: as §1, §2, §3, §4, §5, §6, §7, §8, §9, §10

With O=S(=O)([O-])[O-].O=S(=O)([O-])[O-].O=S(=O)([O-])[O-].[Al+3].[Al+3] [Al2(SO4)3] the “% of Allergen Neutralized” value [1] was 66% and the “% of Allergen Neutralized” value [2] was 6%.

In the case of CC(O)C(=O)[O][Al]([O]C(=O)C(C)O)[O]C(=O)C(C)O (stereo not shown) [Al Lactate, reference compound], the “% of Allergen Neutralized” value [1] was 30% and the “% of Allergen Neutralized” value [2] was 17%.

In the case of O=[N+]([O-])[O-].O=[N+]([O-])[O-].O=[N+]([O-])[O-].[Al+3] [Al(NO3)3], the “% of Allergen Neutralized” value [1] was 93% and the “% of Allergen Neutralized” value [2] was 50%.

[Cl][Al]([Cl])[Cl] [AlCl3] was tested, and the “% of Allergen Neutralized” value [1] was 85% and the “% of Allergen Neutralized” value [2] was 17%.

For O=S(=O)([O-])[O-].O=S(=O)([O-])[O-].[Al+3].[K+] [AlK(SO4)2], the “% of Allergen Neutralized” value [1] was 65% and the “% of Allergen Neutralized” value [2] was 23%.

“aluminum chlorohydrate [Al(OH)Cl2, reference compound]” was tested, and the “% of Allergen Neutralized” value [1] was 59%, the “performance at deactivating dust mite allergens” value ([1]; statement in words on Table I) was “relatively poor performance” and the “% of Allergen Neutralized” value [2] was 3%.
